Measurements taken from patent publication US10195156B2, “Compounds and compositions for intracellular delivery of agents” (ModernaTX, Inc., priority 2015, dated 2019).

Experiments:
[1] = Particle size and polydispersity index of nanoparticle compositions (Zetasizer Nano ZS); format: physicochemical; conditions: for particle size, rank within the named table (in words): comparison amongst compositions
Procedure: A Zetasizer Nano ZS (Malvern Instruments Ltd, Malvern, Worcestershire, UK) can be used to determine the particle size, the polydispersity index (PDI) and the zeta potential of the nanoparticle compositions in 1×PBS in determining particle size and 15 mM PBS in determining zeta potential.

[2] = Encapsulation efficiency of RNA (QUANT-IT RIBOGREEN RNA assay); format: physicochemical; conditions: for encapsulation efficiency, rank within the named table (in words): comparison amongst compositions
Procedure: For nanoparticle compositions including an RNA, a QUANT-IT™ RIBOGREEN® RNA assay (Invitrogen Corporation Carlsbad, Calif.) can be used to evaluate the encapsulation of an RNA by the nanoparticle composition. The samples are diluted to a concentration of approximately 5 μg/mL in a TE buffer solution (10 mM Tris-HCl, 1 mM EDTA, pH 7.5). 50 μL of the diluted samples are transferred to a polystyrene 96 well plate and either 50 μL of TE buffer or 50 μL of a 2% Triton X-100 solution is added to the wells. The plate is incubated at a temperature of 37° C. for 15 minutes. The RIBOGREEN® reagent is diluted 1:100 in TE buffer, and 100 μL of this solution is added to each well. The fluorescence intensity can be measured using a fluorescence plate reader (Wallac Victor 1420 Multilablel Counter; Perkin Elmer, Waltham, Mass.) at an excitation wavelength of, for example, about 480 nm and an emission wavelength of, for example, about 520 nm. The fluorescence values of the reagent blank are subtracted from that of each of the samples and the percentage of free RNA is determined by dividing the fluorescence intensity of the intact sample (without addition of Triton X-100) by the fluorescence value of the disrupted sample (caused by the addition of Triton X-100).

[3] = pKa of nanoparticle compositions; format: physicochemical
[4] = system: luciferase (Luc) mRNA expression; assay: Expression of Luc induced by sample formulations, whole-body bioluminescence after intravenous administration; format: in vivo; conditions: mice, i.v., 0.5 mg/kg; for total flux / Luc expression, rank within the named table (in words): each time point
Procedure: In order to monitor how effectively various nanoparticle compositions deliver therapeutic and/or prophylactic agents to targeted cells, different nanoparticle compositions including a particular therapeutic and/or prophylactic agent (for example, a modified or naturally occurring RNA such as an mRNA) are prepared and administered to rodent populations. Mice are intravenously, intramuscularly, intraarterially, or intratumorally administered a single dose including a nanoparticle composition with a formulation such as those provided in Table 1. In some instances, mice may be made to inhale doses. Dose sizes may range from 0.001 mg/kg to 10 mg/kg, where 10 mg/kg describes a dose including 10 mg of a therapeutic and/or prophylactic agent in a nanoparticle composition for each 1 kg of body mass of the mouse. A control composition including PBS may also be employed.
Upon administration of nanoparticle compositions to mice, dose delivery profiles, dose responses, and toxicity of particular formulations and doses thereof can be measured by enzyme-linked immunosorbent assays (ELISA), bioluminescent imaging, or other methods. For nanoparticle compositions including mRNA, time courses of protein expression can also be evaluated. Samples collected from the rodents for evaluation may include blood, sera, and tissue (for example, muscle tissue from the site of an intramuscular injection and internal tissue); sample collection may involve sacrifice of the animals.
The efficacy of the nanoparticle compositions presented in Tables 1, 1a, 17-1, 19-1, 20-1 and 21-1 was evaluated with a bioluminescence study. Formulations were administered intravenously to mice (n=6) at a dosage of 0.5 mg/kg (mpk) and bioluminescence measured at 3, 6, and 24 hour time points. The standard MC3 formulation and a PBS control were evaluated for comparison.

[5] = system: modified luciferase expression; assay: Expression of Luc in different organs (liver, lung, spleen, femur) 6 hours after intravenous administration; format: in vivo; conditions: i.v., 0.5 mpk
Procedure: The efficacy of the nanoparticle compositions presented in Tables 1, 1a, 17-1, 19-1, 20-1 and 21-1 was further evaluated by measuring the expression of modified luciferase in the liver, lung, spleen, and femur upon administration of a given composition. Formulations were administered intravenously to mice (n=3) at a dosage of 0.5 mpk and bioluminescence measured after 6 hours. The standard MC3 formulation and a PBS control were also tested.

[6] = Table 1, * lipid:DSPC:Chol:PEG-DMG 50:10:38.5:1.5
[7] = Table 20-1, rows without footnote mark
[8] = Table 1, rows without footnote mark (lipid:DOPE:cholesterol:PEG-DMG 40:20:38.5:1.5, Luc mRNA; MC3 standard formulation)
[9] = Table 1, rows without footnote mark

For `CCCCC/C=C\CCCCCN(CCCCCCCCCCCC)CCN1CCN(CCN(CCCCCCCCCCCC)CCN(CCCCCCCCCCCC)CCCCCCCCCCCC)CC1` [Compound 24, (Z)—N^1-(2-(4-(2-(Dodec-6-en-1-yl(dodecyl)amino)ethyl)piperazin-1-yl)ethyl)-N^1,N^2,N^2-tridodecylethane-1,2-diamine], the “Size (nm)” value ([1]; Table 1, * formulated with lipid:DSPC:Chol:PEG-DMG 50:10:38.5:1.5) was 110.4 nm, the PDI [1, 6] was 0.131 and the “EE (%)” value [2, 6] was 36.4%. For the same compound, the “encapsulation efficiency, rank within the named table (in words)” value [2] was “lowest” and the pKa [3, 6] was 6.01.

With `CCCCCCCCCCCCN(CCO)CCN(CCCCCCCCCCCC)CCCCCCCCCCCC` [Compound 20-20, 2-((2-(Didodecylamino)ethyl)(dodecyl)amino)ethan-1-ol] the PDI [1, 7] was 0.159, the “Size (nm)” value [1, 7] was 86.8 nm and the “EE (%)” value [2, 7] was 95.2%. The pKa [3, 7] was 6.41, the “Total Flux 3 hours” value ([4]; Table 20-2) was 4.56E+09 and the “Total Flux 6 hours” value ([4]; Table 20-2) was 3.27E+09. The “Total Flux 24 hours” value ([4]; Table 20-2) was 3.56E+08, the “Total Flux Liver” value ([5]; Table 20-3, mice, liver) was 8.92E+08 and the “Total Flux Lung” value ([5]; Table 20-3, mice) was 1.12E+06. For the same compound, the “Total Flux Spleen” value ([5]; Table 20-3, mice) was 1.39E+07.

For `CCCCCCCC/C=C\CCCCCCCCN(CCCCCCCC/C=C\CCCCCCCC)CCN(CCCCCCCC/C=C\CCCCCCCC)CCN1CCN(CCN(CCCCCCCC/C=C\CCCCCCCC)CCCCCCCC/C=C\CCCCCCCC)CC1` [Formula IV, N^1-(2-(4-(2-(Di((Z)-octadec-9-en-1-yl)amino)ethyl)piperazin-1-yl)ethyl)-N^1,N^2,N^2-tri((Z)-octadec-9-en-1-yl)ethane-1,2-diamine], the “Size (nm)” value [1, 8] was 94.2 nm, the “EE (%)” value [2, 9] was 97.6% and the pKa [3, 9] was 6.25. For the same compound, the “Total Flux Liver” value ([5]; Table 3, mice, liver) was 9.15E+08 and the “Total Flux Spleen” value ([5]; Table 3, mice) was 6.15E+08.

In the case of `CCCCC/C=C\C/C=C\CCCCCCCCC1(CCCCCCCC/C=C\C/C=C\CCCCC)CC1CN(C)C` (stereo not drawn) [Compound 21-1, 1-(2,2-Di((9Z,12Z)-octadeca-9,12-dien-1-yl)cyclopropyl)-N,N-dimethylmethanamine], the PDI ([1]; Table 21-1) is reported as 0.237, the “Size (nm)” value ([1]; Table 21-1) is reported as 119.9 nm and the “particle size, rank within the named table (in words)” value [1] is reported as “largest particles”. For the same compound, the “EE (%)” value ([2]; Table 21-1) was 98.4%, the pKa ([3]; Table 21-1) was 6.07 and the “Total Flux 3 hours” value ([4]; Table 21-2) was 3.66E+09. The “Total Flux 6 hours” value ([4]; Table 21-2) was 4.19E+09, the “Total Flux 24 hours” value ([4]; Table 21-2) was 4.19E+09 and the “Total Flux Liver” value ([5]; Table 21-3, mice, liver) was 3.62E+08. For the same compound, the “Total Flux Lung” value ([5]; Table 21-3, mice) was 5.44E+05 and the “Total Flux Spleen” value ([5]; Table 21-3, mice) was 3.27E+07.

With `CCCCCCCCCCCCN(CCCCCCCCCCCC)CCN1CCN(Cc2ccc(OC)cc2)CC1` [Compound 19-5, N-Dodecyl-N-(2-(4-(4-methoxybenzyl)piperazin-1-yl)ethyl)dodecan-1-amine] the PDI ([1]; Table 19-1) was 0.204, the “Size (nm)” value ([1]; Table 19-1) was 106.9 nm and the “EE (%)” value ([2]; Table 19-1) was 93.6%. For the same compound, the pKa ([3]; Table 19-1) was 6.32, the “Total Flux 3 hours” value ([4]; Table 19-2) was 2.37E+07 and the “Total Flux 6 hours” value ([4]; Table 19-2) was 1.44E+07. For the same compound, the “Total Flux 24 hours” value ([4]; Table 19-2) was 2.76E+06, the “total flux / Luc expression, rank within the named table (in words)” value [4] was “next highest flux” and the “Total Flux Liver” value ([5]; Table 19-3, mice, liver) was 5.99E+06. The “Total Flux Lung” value ([5]; Table 19-3, mice) was 3.46E+04 and the “Total Flux Spleen” value ([5]; Table 19-3, mice) was 2.10E+05.

For `CCCCCCCCCCCCN(CCO)CCCCCCCCCCCC` [Compound 17-11, 2-(Didodecylamino)ethan-1-ol], the PDI ([1]; Table 17-1) was 0.24, the “Size (nm)” value ([1]; Table 17-1) was 87.3 nm and the “EE (%)” value ([2]; Table 17-1) was 88.7%. The pKa ([3]; Table 17-1) was 6.76, the “Total Flux 3 hours” value ([4]; Table 17-2) was 1.86E+06 and the “Total Flux 6 hours” value ([4]; Table 17-2) was 2.82E+06. The “Total Flux 24 hours” value ([4]; Table 17-2) was 2.70E+05, the “Total Flux Liver” value ([5]; Table 17-3, mice, liver) was 5.06E+05 and the “Total Flux Lung” value ([5]; Table 17-3, mice) was 1.20E+04. For the same compound, the “Total Flux Spleen” value ([5]; Table 17-3, mice) was 3.37E+05.

For `CCCCCCCCCCCCN(CCCCCCCCCCCC)CCN1CCN(CCN(CCCCCCCCCCCC)C(=O)CN(CCCCCCCCCCCC)CCCCCCCCCCCC)CC1` [Compound 1, 2-(Didodecylamino)-N-(2-(4-(2-(didodecylamino)ethyl)piperazin-1-yl)ethyl)-N-dodecylacetamide], the “Size (nm)” value [1, 8] was 203.2 nm, the “particle size, rank within the named table (in words)” value [1] was “largest particles” and the “EE (%)” value [2, 9] was 46.2%. The “encapsulation efficiency, rank within the named table (in words)” value [2] was “lowest” and the pKa [3, 9] was 5.95.

With `CCCCC/C=C\C/C=C\CCCCCCCC1C(CCCCCCC/C=C\C/C=C\CCCCC)C1CN(C)C` (stereo not drawn) [Compound 21-6, 1-(2,3-Di((8Z,11Z)-heptadeca-8,11-dien-1-yl)cyclopropyl)-N,N-dimethylmethanamine] the PDI ([1]; Table 21-1) was 0.110, the “Size (nm)” value ([1]; Table 21-1) was 86.8 nm and the “EE (%)” value ([2]; Table 21-1) was 98.9%. For the same compound, the pKa ([3]; Table 21-1) was 6.99, the “Total Flux 3 hours” value ([4]; Table 21-2) was 2.92E+09 and the “Total Flux 6 hours” value ([4]; Table 21-2) was 4.54E+09. For the same compound, the “Total Flux 24 hours” value ([4]; Table 21-2) was 1.40E+08, the “Total Flux Liver” value ([5]; Table 21-3, mice, liver) was 4.79E+08 and the “Total Flux Lung” value ([5]; Table 21-3, mice) was 2.09E+06. The “Total Flux Spleen” value ([5]; Table 21-3, mice) was 1.94E+07.

For `CCCCCCCCCCCCN(CCCCCCCCCCCC)CCN1CCNCC1` [Compound 19-2, N-Dodecyl-N-(2-(piperazin-1-yl)ethyl)dodecan-1-amine], the PDI ([1]; Table 19-1) was 0.239, the “Size (nm)” value ([1]; Table 19-1) was 72.0 nm and the “EE (%)” value ([2]; Table 19-1) was 98.8%. For the same compound, the pKa ([3]; Table 19-1) was 7.32, the “Total Flux 3 hours” value ([4]; Table 19-2) was 1.96E+05 and the “Total Flux 6 hours” value ([4]; Table 19-2) was 3.51E+05. The “Total Flux 24 hours” value ([4]; Table 19-2) was 2.29E+05, the “total flux / Luc expression, rank within the named table (in words)” value [4] was “lowest total flux” and the “Total Flux Liver” value ([5]; Table 19-3, mice, liver) was 5.73E+04. For the same compound, the “Total Flux Lung” value ([5]; Table 19-3, mice) was 2.33E+04, the “Total Flux Spleen” value ([5]; Table 19-3, mice) was 3.56E+04 and the “total flux in the liver, rank within the named table (in words)” value ([5]; mice, liver) was “lowest total flux in the liver”.

In the case of `CCCCC/C=C\C/C=C\CCCCCCCCC1(CCCCCCCC/C=C\C/C=C\CCCCC)CCC(OC(=O)CCCN(C)C)C1` (stereo not drawn) [Compound 21-4, 3,3-Di((9Z,12Z)-octadeca-9,12-dien-1-yl)cyclopentyl 4-(dimethylamino)butanoate], the PDI ([1]; Table 21-1) is reported as 0.193, the “Size (nm)” value ([1]; Table 21-1) is reported as 94.9 nm and the “EE (%)” value ([2]; Table 21-1) is reported as 98.8%. For the same compound, the pKa ([3]; Table 21-1) was 7.01, the “Total Flux 3 hours” value ([4]; Table 21-2) was 1.15E+09 and the “Total Flux 6 hours” value ([4]; Table 21-2) was 1.26E+09. For the same compound, the “Total Flux 24 hours” value ([4]; Table 21-2) was 1.26E+09, the “Total Flux Liver” value ([5]; Table 21-3, mice, liver) was 9.89E+07 and the “Total Flux Lung” value ([5]; Table 21-3, mice) was 2.13E+05. The “Total Flux Spleen” value ([5]; Table 21-3, mice) was 1.27E+07 and the “total flux in organs, rank or organ comparison (in words)” value ([5]; mice, each organ or overall) was “lowest expression in each organ”.
